Test results from ChEMBL document CHEMBL4804283, “Stk19 inhibitors for treatment of cancer” (2020).
Activity calls are given as the source filed them. No cut-off for these calls is given here.

Assays:
[1] = Toxicity in C57BL/6J mouse assessed as effect on creatinine level at 25 mg/kg, administered twice daily for 20 days; type: organism-based; settings: in vivo, 480 h
[2] = target: T1, Histone-lysine N-methyltransferase EHMT2 (Homo sapiens) (UniProt Q96KQ7); assay: Inhibition of G9a in human SK-MEL-2 cells expressing NRAS Q61R and wild-type BRAF at 100-300 nM relative to control; type: cell-based
T1 sequence (whole entry): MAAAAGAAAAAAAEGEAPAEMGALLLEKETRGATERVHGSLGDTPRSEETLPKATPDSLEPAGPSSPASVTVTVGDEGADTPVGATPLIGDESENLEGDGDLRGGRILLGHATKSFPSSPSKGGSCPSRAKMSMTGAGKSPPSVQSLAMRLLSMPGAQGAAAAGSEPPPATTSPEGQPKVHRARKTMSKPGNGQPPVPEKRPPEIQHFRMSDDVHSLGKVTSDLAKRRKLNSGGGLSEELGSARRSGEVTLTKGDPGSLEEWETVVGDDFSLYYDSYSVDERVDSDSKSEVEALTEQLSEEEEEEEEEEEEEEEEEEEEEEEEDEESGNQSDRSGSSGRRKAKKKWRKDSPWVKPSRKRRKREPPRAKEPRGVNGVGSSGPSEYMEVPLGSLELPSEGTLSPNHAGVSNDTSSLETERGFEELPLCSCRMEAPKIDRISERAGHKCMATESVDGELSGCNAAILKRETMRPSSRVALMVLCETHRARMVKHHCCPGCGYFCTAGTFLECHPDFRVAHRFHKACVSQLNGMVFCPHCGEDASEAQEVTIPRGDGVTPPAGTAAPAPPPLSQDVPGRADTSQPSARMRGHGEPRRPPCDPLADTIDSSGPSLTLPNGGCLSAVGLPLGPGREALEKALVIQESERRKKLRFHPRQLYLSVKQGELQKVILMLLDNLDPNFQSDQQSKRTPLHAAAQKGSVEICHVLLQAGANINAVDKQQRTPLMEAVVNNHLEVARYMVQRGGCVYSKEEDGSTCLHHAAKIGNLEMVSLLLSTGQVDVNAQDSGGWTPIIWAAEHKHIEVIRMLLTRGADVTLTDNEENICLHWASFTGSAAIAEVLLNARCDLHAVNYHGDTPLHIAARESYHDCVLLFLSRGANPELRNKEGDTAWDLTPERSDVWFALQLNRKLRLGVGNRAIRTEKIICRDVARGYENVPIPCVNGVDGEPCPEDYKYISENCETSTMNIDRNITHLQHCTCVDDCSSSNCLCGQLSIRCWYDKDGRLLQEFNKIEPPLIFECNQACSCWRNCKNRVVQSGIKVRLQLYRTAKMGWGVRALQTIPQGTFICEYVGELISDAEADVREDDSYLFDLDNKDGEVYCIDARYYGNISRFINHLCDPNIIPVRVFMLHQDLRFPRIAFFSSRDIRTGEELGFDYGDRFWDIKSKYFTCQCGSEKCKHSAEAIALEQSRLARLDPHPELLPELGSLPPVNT

[3] = Toxicity in C57BL/6J mouse assessed as kidney histology at 25 mg/kg, administered twice daily for 20 days by H and E staining method; type: organism-based; settings: in vivo, 480 h
[4] = target: T2, Inactive serine/threonine-protein kinase 19 (Homo sapiens) (UniProt P49842); assay: Inhibition of STK19 in human WM2032 cells expressing NRAS Q61R and wild-type BRAF at 1-3 uM assessed as PI3K signaling relative to control; type: cell-based
T2 sequence (whole entry): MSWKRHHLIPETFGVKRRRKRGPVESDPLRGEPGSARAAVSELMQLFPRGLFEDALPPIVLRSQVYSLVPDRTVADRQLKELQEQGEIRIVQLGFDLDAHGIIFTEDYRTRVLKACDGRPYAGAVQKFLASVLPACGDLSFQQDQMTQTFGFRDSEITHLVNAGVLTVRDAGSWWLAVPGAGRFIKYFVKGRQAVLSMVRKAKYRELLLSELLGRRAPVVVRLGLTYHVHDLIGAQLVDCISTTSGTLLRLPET

[5] = test system: T3, Inactive serine/threonine-protein kinase 19 (Homo sapiens), P49842 [D89N]; assay: Inhibition of STK19 in STK19-depleted human primary melanocytes expressing STK19 D89N mutant at 1-3 uM assessed as NRAS phosphorylation relative to control; type: tissue-based; settings: Melanocyte
T3 sequence (whole entry): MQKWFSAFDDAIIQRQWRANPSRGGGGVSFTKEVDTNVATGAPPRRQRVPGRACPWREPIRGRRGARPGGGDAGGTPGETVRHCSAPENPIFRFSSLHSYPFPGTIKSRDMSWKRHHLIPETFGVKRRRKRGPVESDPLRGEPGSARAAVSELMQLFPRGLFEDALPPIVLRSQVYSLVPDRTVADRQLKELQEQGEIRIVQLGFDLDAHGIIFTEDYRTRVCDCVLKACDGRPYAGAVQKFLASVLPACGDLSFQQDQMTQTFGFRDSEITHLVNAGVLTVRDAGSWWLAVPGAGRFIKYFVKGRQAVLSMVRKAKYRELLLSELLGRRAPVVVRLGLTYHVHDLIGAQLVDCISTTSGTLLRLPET

SK-MEL-2 = assay: Antitumor activity against human SK-MEL-2 cells xenografted in nude mouse assessed as induction of apoptosis at 50 mg/kg, administered for 21 days; type: functional, organism-based
[6] = Toxicity in C57BL/6J mouse assessed as effect on total protein level at 25 mg/kg, administered twice daily for 20 days; type: organism-based; settings: in vivo, 480 h
[7] = target: T2, Inactive serine/threonine-protein kinase 19 (Homo sapiens); assay: Inhibition of STK19 in human WM2032 cells expressing NRAS Q61R and wild-type BRAF at 300 nM assessed as NRAS phosphorylation relative to control; type: cell-based
hTERT [8] = assay: Antiproliferative activity against hTERT/p53DD/CDK4 (R24C) immortal melanocytes expressing wild-type STK19 at 3 uM relative to control; type: functional, tissue-based; settings: Homo sapiens
[9] = target: T2, Inactive serine/threonine-protein kinase 19 (Homo sapiens); assay: Inhibition of STK19 in human A375 cells expressing wild-type NRAS and BRAF V600E mutant at 1-3 uM assessed as PI3K signaling relative to control; type: cell-based; settings: A-375
[10] = target: T2, Inactive serine/threonine-protein kinase 19 (Homo sapiens); assay: Inhibition of STK19 in human UACC62 cells expressing wild-type NRAS and BRAF V600E mutant at 1-3 uM assessed as MEK-ERK signaling relative to control; type: cell-based; settings: UACC-62
hTERT [11] = assay: Antitumor activity against hTERT/p53DD/CDK4 (R24C) immortal melanocytes expressing STK19 D89N mutant xenografted in nude mouse assessed as reduction in tumor formation; type: functional; settings: Homo sapiens
hTERT [12] = assay: Inhibition of colony formation in hTERT/p53DD/CDK4 (R24C) immortal melanocytes expressing STK19 D89N mutant at 3 uM relative to control; type: functional; settings: Homo sapiens
[13] = Toxicity in C57BL/6J mouse assessed as effect on lactic dehydrogenase level at 25 mg/kg, administered twice daily for 20 days; type: organism-based; settings: in vivo, 480 h
[14] = Toxicity in C57BL/6J mouse assessed as effect on total bilirubin level at 25 mg/kg, administered twice daily for 20 days; type: organism-based; settings: in vivo, 480 h
[15] = target: T2, Inactive serine/threonine-protein kinase 19 (Homo sapiens); assay: Inhibition of STK19 in human SK-MEL-2 cells expressing NRAS Q61R and wild-type BRAF at 1-3 uM assessed as NRAS signaling relative to control; type: cell-based

COc1cc2nc(NC3CC3)nc(NC3CCN(C(C)C)CC3)c2cc1OC.O=C(O)C(F)(F)F
Activity [1]: Non-Toxic
inhibition [2]: inactive
Activity [3]: Non-Toxic
inhibition [4]: Active
inhibition [5]: Active
Activity (SK-MEL-2): Active
Activity [6]: Non-Toxic
inhibition [7]: Active
Activity (hTERT [8]): Active
inhibition [9]: inactive
inhibition [10]: inactive
Activity (hTERT [11]): Active
Activity (hTERT [12]): Active
Activity [13]: Non-Toxic
Activity [14]: Non-Toxic
inhibition [15]: Active
